What was measured:
guppies = experiment: Toxicity to guppies; type: in vivo; settings: LC50 after 48 hours classified
Experimental: In this example the toxicity of the compounds of the invention towards guppies was estimated and is compared with that of corresponding compounds as disclosed and claimed in our co-pending U.S. Application No. 910,117 filed May 30, 1978. The LC50 was determined after 48 hours and the toxicity to guppies was classified into the rankings (i), (ii) and (iii) according to the following classification scheme: […]

cockroach larvae = settings: 24 hours; 25° C.
Phytophthora infestans = type: in vivo; settings: tomato late blight; 500 ppm; after 5 days; average per leaf
Sphaerotheca fuliginea = experiment: Effect on powdery mildew in cucumbers; type: in vivo; settings: cucumber powdery mildew; 500 ppm; 10 days
Experimental: (§1) In the following Examples, wettable powders prepared according to the procedures of Example 4 were used, each powder containing 50% by weight of the active compound of this invention.
Cucumber seedlings (variety Sagamihanshiro), planted two per 12 cm diameter pot, were used as host plants at the stage when the first leaf was fully grown and open. Each test group of three pots was treated with one of the active compounds shown in Table 5 by spraying an aqueous suspension containing 500 ppm of the active compound onto the plants at the rate of 20 ml per 3 pots. After air-drying the plants, the host plants were inoculated with the microorganism Sphaerotheca fuliginea by brushing already infected cucumber leaves with a small brush and letting the microorganism fall onto the host plants. The inoculated plants were kept in a greenhouse at 24°-26° C. for 10 days. At the end of this time, the percentage diseased area was measured.

[1] = system: final instar larvae of the diamondback moth (Plutella xylostella); experiment: Repellent and emergence-inhibition effect on the final instar larvae of diamondback moths; type: in vivo; settings: 72 hours; for pest or weed control at 500 ppm: Plutella xylostella, read-out: Emergence-inhibition rate (%); for Extent of ingestion: radish leaves dipped in 500 ppm
Description: as §1
Leaves of the Japanese radish (Raphanus sativus) were dipped for 30 seconds into a liquid containing 500 ppm of one of the compounds shown in Table 9. After air-drying the leaves, each leaf was placed into a plastic icecream cup (diameter 8 cm) and 15 final instar larvae of the diamondback moth (Plutella xylostella) were placed into each cup. Each test was conducted in duplicate and the results were averaged.

| SMILES | Toxicity ranking (guppies) | Diseased area (%) (Phytophthora infestans) | Diseased area (%) (Sphaerotheca fuliginea) | further results |
| --- | --- | --- | --- | --- |
| Cc1ccccc1OCCNc1ncnc2ccccc12 [Compound A, 4-{N-[2-(2-methylphenoxy)ethyl]amino}quinazoline, reference compound] | iii (all fish dead at 0.5 ppm) | – | – | – |
| CC(C)c1ccccc1OCCNc1ncnc2ccccc12 [Compound B, 4-{N-[2-(2-isopropylphenoxy)ethyl]amino}quinazoline, reference compound] | iii (all fish dead at 0.5 ppm) | – | – | – |
| Cc1ccc(OCCNc2ncnc3ccccc23)c(C)c1 [Compound C, 4-{N-[2-(2,4-dimethylphenoxy)ethyl]amino}quinazoline, reference compound] | iii (all fish dead at 0.5 ppm) | – | – | – |
| Cc1cc(Cl)ccc1OCCNc1ncnc2ccccc12 [Compound D, 4-{N-[2-(4-chloro-2-methylphenoxy)ethyl]amino}quinazoline, reference compound] | iii (all fish dead at 0.5 ppm) | – | – | – |
| CN(CCOc1ccccc1)c1ncnc2ccccc12 [Compound No. 4, 4-[N-methyl-N-(2-phenoxyethyl)amino]quinazoline] | – | – | – | Mortality rate (%), 0.5mg test cpd/10 cockroaches/bottle (cockroach larvae): 85%; Mortality rate (%), 1mg test cpd/10 cockroaches/bottle (cockroach larvae): 100% |
| C=CCN(CCOc1ccccc1C)c1ncnc2ccccc12 [Compound No. 8, 4-{N-allyl-N-[2-(2-methylphenoxy)ethyl]amino}quinazoline] | ii (all fish dead at 10 ppm but alive at 0.5 ppm) | 5 | 0 | – |
| Cc1ccccc1OCCN(Cc1ccccc1)c1ncnc2ccccc12 [compound 3, 4-{N-benzyl-N-[2-(2-methylphenoxy)ethyl]amino}quinazoline] | i (all fish alive at 10 ppm) | 11 | 0 | – |
| CCN(CCOc1ccccc1)c1ncnc2ccccc12 [compound 5, 4-[N-ethyl-N-(2-phenoxyethyl)amino]quinazoline] | – | – | 6 | – |
| CCCN(CCOc1ccccc1C)c1ncnc2ccccc12 [compound 6, 4-{N-[2-(2-methylphenoxy)ethyl]-N-propylamino}quinazoline] | – | 0 | 0 | – |
| Cc1ccccc1OCCN(c1ncnc2ccccc12)C(C)C [compound 7, 4-{N-isopropyl-N-[2-(2-methylphenoxy)ethyl]amino}quinazoline] | ii (all fish dead at 10 ppm but alive at 0.5 ppm) | – | 0 | – |
| CN(CCOc1ccccc1Cl)c1ncnc2ccccc12 [compound 11, 4-{N-[2-(2-chlorophenoxy)ethyl]-N-methylamino}quinazolone] | – | 3 | – | – |
| CCC(C)c1ccccc1OCCN(C)c1ncnc2ccccc12 (centres unmarked) [compound 12, 4-{N-methyl-N-[2-(2-sec-butylphenoxy)ethyl]amino}quinazoline] | – | 15 | – | Mortality rate (%), 0.5mg test cpd/10 cockroaches/bottle (cockroach larvae): 90%; Mortality rate (%), 1mg test cpd/10 cockroaches/bottle (cockroach larvae): 100% |
| COc1ccccc1OCCN(C)c1ncnc2ccccc12 [compound 16, 4-{N-[2-(2-methoxyphenoxy)ethyl]-N-methylamino}quinazoline] | – | 13 | – | – |
| Cc1cccc(OCCN(C)c2ncnc3ccccc23)c1 [compound 20, 4-{N-methyl-N-[2-(3-methylphenoxy)ethyl]amino}quinazoline] | – | – | – | Mortality rate (%), 0.5mg test cpd/10 cockroaches/bottle (cockroach larvae): 90%; Mortality rate (%), 1mg test cpd/10 cockroaches/bottle (cockroach larvae): 100% |
| CN(CCOc1cccc(Cl)c1)c1ncnc2ccccc12 [compound 23, 4-{N-[2-(3-chlorophenoxy)ethyl]-N-methylamino}quinazoline] | – | – | – | Mortality rate (%), 0.5mg test cpd/10 cockroaches/bottle (cockroach larvae): 85%; Mortality rate (%), 1mg test cpd/10 cockroaches/bottle (cockroach larvae): 100% |
| CCCN(CCOc1ccccc1C(C)C)c1ncnc2ccccc12 [compound 24, 4-{N-[2-(2-isopropylphenoxy)ethyl]-N-propylamino}quinazoline] | – | – | 0 | – |
| CCN(CCOc1ccccc1C(C)C)c1ncnc2ccccc12 [compound 27, 4-{N-ethyl-N-[2-(2-isopropylphenoxy)ethyl]amino}quinazoline] | – | – | 0 | – |
| CCCCN(CCOc1ccccc1C(C)C)c1ncnc2ccccc12 [compound 28, 4{N-butyl-N-[2-(2-isopropylphenoxy)ethyl]amino}quinazoline] | – | – | 0 | – |
| CC(C)c1ccccc1OCCN(c1ncnc2ccccc12)C(C)C [compound 29, 4-{N-isopropyl-N-[2-(2-isopropylphenoxy)ethyl]amino}quinazoline] | – | – | – | pest or weed control at 500 ppm [1]: 60%; Extent of ingestion [1]: ± to + |
| CCCN(CCOc1ccc(C)cc1C)c1ncnc2ccccc12 [compound 33, 4-{N-[2-(2,4-dimethylphenoxy)ethyl]-N-propylamino}quinazoline] | – | – | 0 | Mortality rate (%), 0.5mg test cpd/10 cockroaches/bottle (cockroach larvae): 90%; Mortality rate (%), 1mg test cpd/10 cockroaches/bottle (cockroach larvae): 100% |
| CCCCN(CCOc1ccc(C)cc1C)c1ncnc2ccccc12 [compound 35, 4-{N-butyl-N-[2-(2,4-dimethylphenoxy)ethyl]amino}quinazoline] | ii (all fish dead at 10 ppm but alive at 0.5 ppm) | – | 0 | – |
| Cc1ccc(OCCN(Cc2ccccc2)c2ncnc3ccccc23)c(C)c1 [compound 36, 4-{N-benzyl-N-[2-(2,4-dimethylphenoxy)ethyl]amino}quinazoline] | ii (all fish dead at 10 ppm but alive at 0.5 ppm) | – | 0 | – |
| Cc1ccc(OCCN(c2ncnc3ccccc23)C2CCCCC2)c(C)c1 [compound 37, 4-{N-cyclohexyl-N-[2-(2,4-dimethylphenoxy)ethyl]amino}quinazoline] | – | – | – | pest or weed control at 500 ppm [1]: 60%; Extent of ingestion [1]: ± to + |
| Cc1cc(Cl)ccc1OCCN(c1ncnc2ccccc12)C(C)C [compound 40, 4-{N-[2-(4-chloro-2-methylphenoxy)ethyl]-N-isopropylamino}quinazoline] | i (all fish alive at 10 ppm) | – | 0 | – |
| Cc1cc(Cl)ccc1OCCN(Cc1ccccc1)c1ncnc2ccccc12 [compound 42, 4-{N-benzyl-N-[2-(4-chloro-2-methylphenoxy)ethyl]amino}quinazoline] | – | – | – | pest or weed control at 500 ppm [1]: 60%; Extent of ingestion [1]: ± to + |
| CC(C)c1ccccc1OCCN(c1ncnc2ccccc12)C1CCCCC1 [compound 46, 4-{N-cyclohexyl-N-[2-(2-isopropylphenoxy)ethyl]amino}quinazoline] | – | 0 | – | – |
| CCCN(CCOc1cc(C(C)C)ccc1C)c1ncnc2ccccc12 [compound 48, 4-{N-[2-(5-isopropyl-2-methylphenoxy)ethyl]-N-propylamino}quinazoline] | – | – | 0 | – |
| CCCCN(CCOc1cc(C(C)C)ccc1C)c1ncnc2ccccc12 [compound 49, 4-{N-butyl-N-[2-(5-isopropyl-2-methylphenoxy)ethyl]amino}quinazoline] | – | – | 0 | – |
| CC(C)=CCN(CCOc1ccccc1C(C)C)c1ncnc2ccccc12 [compound 53, 4-{N-[2-(2-isopropylphenoxy)ethyl]-N-(3-methyl-2-butenyl)amino}quinazoline] | ii (all fish dead at 10 ppm but alive at 0.5 ppm) | 0 | – | – |
| CC(C)c1ccccc1OCCN(C)c1ncnc2ccccc12.O=C(O)C(=O)O [compound 54, 4-{N-[2-(2-isopropylphenoxy)ethyl]-N-methylamino}quinazoline oxalate] | – | 0 | – | – |
